Measurements taken from patent publication US20090181948A1, “DIAMINE DERIVATIVE” (KYOWA HAKKO KOGYO CO., LTD., priority 2005, published 2009).

target: T1, histamine H3 receptor (Rattus norvegicus, UniProt Q9QYN8); experiment: Histamine H3 receptor binding assay ([3H]-Nα-methylhistamine binding to rat striatum homogenate); settings: 1 μmol/L test compound; [3H]-Nα-methylhistamine 1 nmol/L; striata of Sprague-Dawley male rats, 25° C., 1 hour; read-out: Inhibition ratio of [3H]-Nα-methylhistamine binding
T1 construct: from tissue; host or cells: rat striatum (Sprague-Dawley, male, 6 weeks), membrane homogenate
T1 sequence (Q9QYN8 whole entry): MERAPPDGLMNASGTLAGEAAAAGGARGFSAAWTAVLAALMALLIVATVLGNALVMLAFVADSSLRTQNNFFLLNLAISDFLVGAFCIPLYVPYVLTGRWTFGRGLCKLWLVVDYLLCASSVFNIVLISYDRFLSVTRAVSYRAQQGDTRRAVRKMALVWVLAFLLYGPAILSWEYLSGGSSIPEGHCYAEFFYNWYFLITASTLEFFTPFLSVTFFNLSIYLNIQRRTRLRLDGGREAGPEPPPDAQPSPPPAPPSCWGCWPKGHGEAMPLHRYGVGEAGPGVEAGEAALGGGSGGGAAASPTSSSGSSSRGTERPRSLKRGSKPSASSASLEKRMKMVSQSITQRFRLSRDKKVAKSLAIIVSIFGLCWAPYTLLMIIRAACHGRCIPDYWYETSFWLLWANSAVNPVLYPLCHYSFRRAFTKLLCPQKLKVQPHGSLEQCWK
Protocol: To the striata of Sprague-Dawley male rats (6 weeks of age), a 10-fold volume of lysis buffer {50 mmol/L [[…] (Tris)]/HCl (pH 7.4), 5 mmol/L ethylenediaminetetraacetic acid (EDTA), a protease inhibitor mixture [1 mg/mL phenylmethylsulfonyl fluoride (PMSF), 1 μg/mL pepstatin A, 1 μg/mL leupeptin, 1 μg/mL chymostatin]} was added and the striata were homogenized. The resulting homogenate was centrifuged (30,000×g, 4° C., 30 min), and the obtained precipitate was resuspended in a 10-fold volume of lysis buffer, followed by centrifugation under the same condition. To the obtained precipitate, a 3-fold volume of lysis buffer was added to suspend the precipitate, and the resulting tissue homogenate was used for a test.
A test compound was dissolved in an assay buffer [50 mmol/L Tris/HCl (pH 7.4), 5 mmol/L EDTA], and [^3H]-N^α-methylhistamine (1 nmol/L) and the tissue homogenate (20 μg, in terms of protein amount) were added thereto, and then, the mixture was incubated at 25° C. for 1 hour. Then, the reaction was terminated by rapid suction filtration on a glass filter [GF/B: Whatman, previously soaked in 0.3 w/v % polyethylenimine for about 30 min]. Then, the glass filter was washed three times with 3 mL of assay buffer. This glass filter was transferred into a scintillation vial and dried at 60° C. for 30 minutes. Then, 0.5 mL of Ultimagold (Perkin Elmer) was added thereto, and the radioactivity (binding amount of [^3H]-N^α-methylhistamine) was measured using a liquid scintillation counter. The obtained value was used as a binding amount in the presence of the test compound. The same procedure as described above was carried out in the absence of the test compound, and the binding amount of [^3H]-N^α-methylhistamine obtained at this time was used as a binding amount in the absence of the test compound. Further, the binding amount of [^3H]-N^α-methylhistamine obtained in the presence of 10 μmol/L thioperamide was used as a non-specific binding amount. An inhibitory action of [^3H]-N^α-methylhistamine binding was represented by an inhibition ratio in terms of 1 μmol/L of the test compound calculated by the following Equation (1).
Inhibition ratio(%)={1−[(Binding amount in the presence of test compound)−(Non-specific binding amount)]/[(Binding amount in the absence of test compound)−(Non-specific binding amount)]}×100 (1)

inhibition at 1 µM	SMILES
≥ 80%	N#CC(C#N)=C1N(CCCN2CCCCC2)CCN1CCCN1CCC(O)C1 (stereo not shown) [Compound 101, {1-[3-(3-Hydroxypyrrolidin-1-yl)propyl]-3-(3-piperidinopropyl)imidazolidin-2-ylidene}malononitrile]
≥ 80%	N#CC(C#N)=C(NCCCN1CCC(F)(F)C1)N1CCC(N2CCCCC2)CC1 [Compound 168, {[3-(3,3-Difluoropyrrolidin-1-yl)propylamino](4-piperidinopiperidino)methylene}malononitrile]
≥ 80%	N#CC(C#N)=C1N(CCCN2CC=CCC2)CCN1CCCN1CCCC1 [Compound 89, {1-[3-(1,2,3,6-Tetrahydropyridin-1-yl)propyl]-3-[3-(pyrrolidin-1-yl)propyl]imidazolidin-2-ylidene}malononitrile]
≥ 80%	C[C@@H]1C[C@H](C)CN(CCN2CCN(CCCN3CC=CCC3)C2=C(C#N)C#N)C1 [Compound 27, {1-[3-(1,2,3,6-Tetrahydropyridin-1-yl)propyl]-3-[2-(cis-3,5-dimethylpiperidino)ethyl]imidazolidin-2-ylidene}malononitrile]
≥ 80%	CC1CCCN1CCCN1CCN(CCCN2CCC(O)C2)C1=C(C#N)C#N (stereo not shown) [Compound 114, {1-[3-(3-Hydroxypyrrolidin-1-yl)propyl]-3-[3-(2-methylpyrrolidin-1-yl)propyl]imidazolidin-2-ylidene}malononitrile]
≥ 80%	CC1CC(C)CN(CCCN2CCN(CCCN3CCCCC3)C2=C(C#N)C#N)C1 (stereo not shown) [Compound 102, {1-[3-(3,5-Dimethylpiperidino)propyl]-3-(3-piperidinopropyl)imidazolidin-2-ylidene}malononitrile]
≥ 80%	N#CC(C#N)=C1N(CCCCN2CCCCC2)CCN1CCCCN1CCCCC1 [Compound 9, [1,3-Bis(4-piperidinobutyl)imidazolidin-2-ylidene]malononitrile]
≥ 80%	CC1CCCN(CCCN2CCN(CCCN3CC=CCC3)C2=C(C#N)C#N)C1 (stereo not shown) [Compound 87, {1-[3-(1,2,3,6-Tetrahydropyridin-1-yl)propyl]-3-[3-(3-methylpiperidino)propyl]imidazolidin-2-ylidene}malononitrile]
≥ 80%	N#CC(C#N)=C1N(CCCN2CCCCC2)CCN1CCN1CCc2ccccc2C1 [Compound 53, {1-[2-(1,2,3,4-Tetrahydroisoquinolin-2-yl)ethyl]-3-(3-piperidinopropyl)imidazolidin-2-ylidene}malononitrile]
≥ 80%	CC1CCCN1CCCN1CCN(CCCN2CCCC2C)C1=NC#N (stereo not shown) [Compound 140, 1,3-Bis[3-(2-methylpyrrolidin-1-yl)propyl]imidazolidin-2-ylidenecyanoamide Difumarate]
≥ 80%	N#CC(C#N)=C1N(CCCN2CCCCC2)CCN1C1CCN(CC2CC2)CC1 [Compound 229, [1-(1-Cyclopropylmethylpiperidin-4-yl)-3-(3-piperidinopropyl)imidazolidin-2-ylidene]malononitrile]
≥ 80%	C[C@H]1CCCN1CCCN1CCN(CCCN2CCSCC2)C1=C(C#N)C#N [Compound 202, {1-[3-((S)-2-methylpyrrolidin-1-yl)propyl]-3-[3-(thiomorpholin-1-yl)propyl]imidazolidin-2-ylidene}malononitrile]
≥ 80%	CC1CCCCN1CCCN1CCN(CCCN2CCCCC2)C1=C(C#N)C#N (stereo not shown) [Compound 98, {1-[3-(2-Methylpiperidino)propyl]-3-(3-piperidinopropyl)imidazolidin-2-ylidene}malononitrile]
≥ 80%	CC(C)N1CCC(N2CCCN(CCCN3CCCCC3)C2=C(C#N)C#N)CC1 [Compound 238, [1-(1-Isopropylpiperidin-4-yl)-3-(3-piperidinopropyl)tetrahydropyrimidin-2-ylidene]malononitrile]
≥ 80%	CC1CC(C)CN(CCCN2CCN(CCN3CC(C)CC(C)C3)C2=C(C#N)C#N)C1 (stereo not shown) [Compound 17, {1-[2-(3,5-Dimethylpiperidino)ethyl]-3-[3-(3,5-dimethylpiperidino)propyl]imidazolidin-2-ylidene}malononitrile]
≥ 80%	CC1CC(C)CN(CCN2CCN(CCCN3CCCCC3)C2=C(C#N)C#N)C1 (stereo not shown) [Compound 13, {1-[2-(3,5-Dimethylpiperidino)ethyl]-3-(3-piperidinopropyl)imidazolidin-2-ylidene}malononitrile]
≥ 80%	CC1CC(C)CN(CCCN2CCN(CCCN3CCCCC3C)C2=C(C#N)C#N)C1 (stereo not shown) [Compound 104, {1-[3-(3,5-Dimethylpiperidino)propyl]-3-[3-(2-methylpiperidino)propyl]imidazolidin-2-ylidene}malononitrile]
≥ 80%	CC1CCCN1CCCN1CCCN(CCCN2CCCC2C)C1=C(C#N)C#N (stereo not shown) [Compound 123, {1,3-Bis[3-(2-methylpyrrolidin-1-yl)propyl]hexahydropyrimidin-2-ylidene}malononitrile]
≥ 80%	N#CC(C#N)=C1N(CCCN2CCCC2)CCN1CCCN1CCOCC1 [Compound 82, {1-(3-Morpholinopropyl)-3-[3-(pyrrolidin-1-yl)propyl]imidazolidin-2-ylidene}malononitrile]
≥ 80%	CC1CC(C)CN(CCCN2CCN(CCCN3CCCCCC3)C2=C(C#N)C#N)C1 (stereo not shown) [Compound 70, {1-[3-(Azepan-1-yl)propyl]-3-[3-(3,5-dimethylpiperidino)propyl]imidazolidin-2-ylidene}malononitrile]
≥ 80%	N#CC(C#N)=C1N(CCCNC2CCCCC2)CCN1CCN1CCCCC1 [Compound 62, [1-(3-Cyclohexylaminopropyl)-3-(2-piperidinoethyl)imidazolidin-2-ylidene]malononitrile]
≥ 80%	CC(C)N1CCC(N2CCN(CCCN3CCCC3C)C2=C(C#N)C#N)CC1 (stereo not shown) [Compound 219, {1-(1-Isopropylpiperidin-4-yl)-3-[3-(2-methylpyrrolidin-1-yl)propyl]imidazolidin-2-ylidene}malononitrile]
≥ 80%	N#CC(C#N)=C1N(CCCN2CCOCC2)CCN1C1CCN(CCF)CC1 [Compound 222, {1-[1-(2-Fluoroethyl)piperidin-4-yl]-3-(3-morpholinopropyl)imidazolidin-2-ylidene}malononitrile]
≥ 80%	N#CC(C#N)=C1N(CCCN2CCCCC2)CCN1CCNC1CCCCC1 [Compound 63, [1-(2-Cyclohexylaminoethyl)-3-(3-piperidinopropyl)imidazolidin-2-ylidene]malononitrile Difumarate]
≥ 80%	CC1CCCN1CC1CCN(C(=C(C#N)C#N)N(C)CCN2CCC[C@H]2C)CC1 (stereo partly drawn) [Compound 155, ({N-methyl-N-[2-((R)-2-methylpyrrolidin-1-yl)ethyl]amino}[4-(2-methylpyrrolidin-1-ylmethyl)piperidino]methylene)malononitrile]
≥ 80%	CC1CC(C)CN(CCCN2CCN(CCCN3CCC(O)C3)C2=C(C#N)C#N)C1 (stereo not shown) [Compound 107, {1-[3-(3,5-Dimethylpiperidino)propyl]-3-[3-(3-hydroxypyrrolidin-1-yl)propyl]imidazolidin-2-ylidene}malononitrile]
≥ 80%	N#CC(C#N)=C1N(CCCN2CCCC2)CCN1CCCN1CCCC1 [Compound 94, {1,3-Bis[3-(pyrrolidin-1-yl)propyl]imidazolidin-2-ylidene}malononitrile]
≥ 80%	CC(C)N1CCC(N2CCN(CCC3CCCN3C)C2=C(C#N)C#N)CC1 (stereo not shown) [Compound 187, {1-(1-Isopropylpiperidin-4-yl)-3-[2-(1-methylpyrrolidin-2-yl)ethyl]imidazolidin-2-ylidene}malononitrile]
≥ 80%	C[C@H]1CCCN1CCN(C)C(=C(C#N)C#N)N1CCC(CN2CCCCC2)CC1 [Compound 153, ({N-methyl-N-[2-((S)-2-methylpyrrolidin-1-yl)ethyl]amino}(4-piperidinomethylpiperidino)methylene)malononitrile]
≥ 80%	CC1CCCN1CCCNC(=C(C#N)C#N)N1CCC(N2CCCCC2)CC1 (stereo not shown) [Compound 170, {[3-(2-Methylpyrrolidin-1-yl)propylamino](4-piperidinopiperidino)methylene}malononitrile]

same assay, conditions: rat striatum homogenate; read-out: dissociation constant Kd of [3H]-Nα-methylhistamine binding to the rat H3 receptor

SMILES	Kd
CNCCc1cnc[nH]1 [[^3H]-N^α-methylhistamine, reference compound]	0.57 ± 0.04 nM
